# EP3641735B1, “PHARMACEUTICAL TABLET COMPOSITION COMPRISING BILASTINE FORM 3 AND A WATER-SOLUBLE FILLER” (Alfred E. Tiefenbacher (GmbH & Co. KG), priority 2017, dated 2019)
# Tests used:
# [1] = neat forms; 1 month at 25°C/60%RH and at 40°C/75%RH; cited from earlier work
# [2] = Polymorphic analysis of API by XRD before and after micronisation (jet milling); format: physicochemical
# Excerpt: For example, two from five batches of micronized API have shown the contamination of form 2 with form 3 and dihydrate form A.
SMILES,polymorphic stability on storage [1],polymorphic form of API after micronisation (XRD) ([2]; listed as polymorphic form 2),polymorphic form of API after micronisation (XRD) ([2]; listed as Bilastine form 3)
"CCOCCn1c(C2CCN(CCc3ccc(C(C)(C)C(=O)O)cc3)CC2)nc2ccccc21 [Eta, 2-[4-(2-(4-(1-(2-ethoxyethyl)-1H-benzimidazol-2-yl)piperidin-1-yl)ethyl)phenyl]-2-methylpropionic acid]",stable on storage,–,–
"CCOCCn1c(C2CCN(CCc3ccc(C(C)(C)C(=O)O)cc3)CC2)nc2ccccc21 [form 2, 2-[4-(2-(4-(1-(2-ethoxyethyl)-1H-benzimidazol-2-yl)piperidin-1-yl)ethyl)phenyl]-2-methylpropionic acid]",stable on storage,presence of form 3 and dihydrate form A as polymorphic impurities,–
"CCOCCn1c(C2CCN(CCc3ccc(C(C)(C)C(=O)O)cc3)CC2)nc2ccccc21 [form 1, 2-[4-(2-(4-(1-(2-ethoxyethyl)-1H-benzimidazol-2-yl)piperidin-1-yl)ethyl)phenyl]-2-methylpropionic acid]",stable on storage,–,–
"CCOCCn1c(C2CCN(CCc3ccc(C(C)(C)C(=O)O)cc3)CC2)nc2ccccc21 [Alpha, 2-[4-(2-(4-(1-(2-ethoxyethyl)-1H-benzimidazol-2-yl)piperidin-1-yl)ethyl)phenyl]-2-methylpropionic acid]",stable on storage,–,–
"CCOCCn1c(C2CCN(CCc3ccc(C(C)(C)C(=O)O)cc3)CC2)nc2ccccc21 [form 3, 2-[4-(2-(4-(1-(2-ethoxyethyl)-1H-benzimidazol-2-yl)piperidin-1-yl)ethyl)phenyl]-2-methylpropionic acid]",converted partially into the form 1,–,remains in the polymorphic form 3 without changes
